Structures are written as SMILES.

The target in assay [1] is Sodium-dependent dopamine transporter (Rattus norvegicus, UniProt P23977). In words: Inhibitory activity against radioligand [3H]WIN-35428 binding at the dopamine transporter.
The target in assay [2] is Sodium-dependent serotonin transporter (Rattus norvegicus, UniProt P31652). Briefly: Inhibitory activity against radioligand [3H]paroxetine binding at the serotonin transporter.
Assay [3] has as its target Norepinephrine transporter (Rattus norvegicus, UniProt Q9WTR4). Briefly: Inhibitory activity against radioligand [3H]nisoxetine binding at the norepinephrine transporter.

Chain of Sodium-dependent serotonin transporter (P31652 whole entry): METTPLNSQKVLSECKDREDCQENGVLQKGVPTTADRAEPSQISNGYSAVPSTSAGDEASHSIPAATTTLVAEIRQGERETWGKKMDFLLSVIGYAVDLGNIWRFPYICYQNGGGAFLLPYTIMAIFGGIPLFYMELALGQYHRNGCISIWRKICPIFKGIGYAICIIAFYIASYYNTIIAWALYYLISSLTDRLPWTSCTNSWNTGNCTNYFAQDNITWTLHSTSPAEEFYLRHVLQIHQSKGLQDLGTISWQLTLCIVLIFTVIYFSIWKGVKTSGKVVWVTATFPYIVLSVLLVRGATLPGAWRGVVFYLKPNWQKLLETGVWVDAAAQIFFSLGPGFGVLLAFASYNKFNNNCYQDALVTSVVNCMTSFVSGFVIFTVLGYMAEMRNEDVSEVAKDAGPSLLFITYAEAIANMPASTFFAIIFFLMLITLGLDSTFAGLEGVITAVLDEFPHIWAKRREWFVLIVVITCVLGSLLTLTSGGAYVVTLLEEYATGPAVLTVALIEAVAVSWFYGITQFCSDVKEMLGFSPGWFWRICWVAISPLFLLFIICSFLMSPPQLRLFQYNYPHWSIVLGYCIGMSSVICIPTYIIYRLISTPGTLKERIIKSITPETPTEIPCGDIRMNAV
Chain of Norepinephrine transporter (Q9WTR4 whole entry): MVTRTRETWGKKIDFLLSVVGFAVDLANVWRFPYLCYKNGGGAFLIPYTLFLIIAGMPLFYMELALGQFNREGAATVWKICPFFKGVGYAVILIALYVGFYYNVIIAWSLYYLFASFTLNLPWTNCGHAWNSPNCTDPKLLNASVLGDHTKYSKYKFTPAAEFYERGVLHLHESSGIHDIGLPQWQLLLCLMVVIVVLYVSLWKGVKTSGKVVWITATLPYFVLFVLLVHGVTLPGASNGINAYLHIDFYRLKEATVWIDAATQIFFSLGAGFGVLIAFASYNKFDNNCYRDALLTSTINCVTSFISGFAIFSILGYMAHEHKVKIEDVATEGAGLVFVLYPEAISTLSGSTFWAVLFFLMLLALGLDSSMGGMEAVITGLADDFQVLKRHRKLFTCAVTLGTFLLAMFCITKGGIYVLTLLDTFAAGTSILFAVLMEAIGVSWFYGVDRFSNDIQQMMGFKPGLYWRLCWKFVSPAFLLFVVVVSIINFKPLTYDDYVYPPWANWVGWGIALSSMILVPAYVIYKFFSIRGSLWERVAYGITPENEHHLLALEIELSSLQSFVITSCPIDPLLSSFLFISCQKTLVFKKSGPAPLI
Chain of Sodium-dependent dopamine transporter (P23977 whole entry): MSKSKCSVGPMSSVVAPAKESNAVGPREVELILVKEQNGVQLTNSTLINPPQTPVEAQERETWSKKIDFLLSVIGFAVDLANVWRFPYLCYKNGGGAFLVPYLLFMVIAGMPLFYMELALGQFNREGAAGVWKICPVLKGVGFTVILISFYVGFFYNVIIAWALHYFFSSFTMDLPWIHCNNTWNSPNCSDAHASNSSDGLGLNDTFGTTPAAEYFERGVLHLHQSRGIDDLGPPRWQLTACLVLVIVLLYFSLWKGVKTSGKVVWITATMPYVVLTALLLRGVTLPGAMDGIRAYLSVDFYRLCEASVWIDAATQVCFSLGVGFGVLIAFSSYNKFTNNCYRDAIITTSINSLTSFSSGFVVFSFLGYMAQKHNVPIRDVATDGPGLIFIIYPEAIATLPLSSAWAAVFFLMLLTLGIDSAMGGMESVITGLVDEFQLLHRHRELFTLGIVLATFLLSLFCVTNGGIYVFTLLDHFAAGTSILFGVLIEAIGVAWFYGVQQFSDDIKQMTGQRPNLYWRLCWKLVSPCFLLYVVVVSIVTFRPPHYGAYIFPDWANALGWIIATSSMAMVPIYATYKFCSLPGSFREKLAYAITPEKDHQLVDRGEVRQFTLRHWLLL

A word on the IC50: it is the concentration at which inhibition is half-maximal. High values mean weaker potency in that assay, low ones greater potency in that assay. As for `Cc1ccc(C2C[C@H]3CCC(C2c2ccccc2)N3C)cc1` (stereo in doubt; (R)-4b), the IC50 in assay [1] is 429 nM; in assay [2], 15800 nM; in assay [3], 4850 nM.

Regarding `CN1[C@@H]2CC[C@H]1C(c1ccccc1)C(c1ccccc1)C2` (mixture of isomers; form 1), the figures for the IC50 in assay [1], in assay [2] and in assay [3] were 28 nM, 34700 nM and 2670 nM, respectively.

Take `CN1C2CC[C@@H]1C[C@@H](c1ccccc1)[C@@H]2c1ccccc1` (single isomer, unassigned; form 2): the IC50 worked out at 690 nM in assay [1], 41300 nM in assay [2] and 1040 nM in assay [3].

On to `Cc1ccc(C2C[C@H]3CCC(C2c2ccccc2)N3C)cc1` (stereo in doubt; (R)-3b), for which the values for the IC50 in assay [1], in assay [2] and in assay [3] were 1.96 nM, 11000 nM and 479 nM, respectively.

As for `CN1[C@@H]2CC[C@H]1C(c1ccccc1)C(c1ccccc1)C2` (mixture of isomers; form 2), the IC50 was determined as 186000 nM in assay [2] and 2770 nM in assay [3].

For the molecule `CN1C2CC[C@@H]1C[C@@H](c1ccccc1)[C@@H]2c1ccccc1` (single isomer, unassigned; form 1), the results for the IC50 in assay [1], in assay [2] and in assay [3] were 12.6 nM, 21100 nM and 917 nM, respectively.

Source of the values: ChEMBL document CHEMBL1130729, “Synthesis and transporter binding properties of (R)-2 beta, 3 beta- and (R)-2 alpha, 3 alpha-diaryltropanes” (Bioorg Med Chem Lett, 1998).
